Reference: PMC9806845, “Recombinant actin-depolymerizing factor of the apicomplexan Neospora caninum (NcADF) is susceptible to oxidation” (Frontiers in Cellular and Infection Microbiology, 2022)

Target: T1, NcADF (Neospora caninum, UniProt F0VCT8)
T1 construct: gene NCLIV_012510; N-terminal 6xHis tag, pET28(a), E. coli BL21(DE3), IMAC; 18 kDa; cysteines at 11, 58, 65, 75; TCEP-reduced before assay
T1 sequence (F0VCT8 1-118): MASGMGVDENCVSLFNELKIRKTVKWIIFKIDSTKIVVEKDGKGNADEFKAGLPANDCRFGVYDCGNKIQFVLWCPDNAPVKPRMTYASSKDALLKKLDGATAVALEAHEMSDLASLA
Assay: DTNB free-thiol assay; also biotin-iodoacetamide alkylation and SDS-PAGE dimerization
Format: biochemical
Conditions: covalent (cysteine oxidation, reversible disulfide dimers); 25 uM protein, 20 mM Tris pH 7.0, 30 min

O=S(=O)(O)CCNCl [NCT, N-chlorotaurine]
DTNB free-thiol assay; also biotin-iodoacetamide alkylation and SDS-PAGE dimeriz: micromolar concentration of NCT, but not of H2O2, was sufficient to oxidize the protein
